According to ChEMBL document CHEMBL1122529, “Synthesis of 5-aryl-2H-tetrazoles, 5-aryl-2H-tetrazole-2-acetic acids, and [(4-phenyl-5-aryl-4H-1,2,4-triazol-3-yl)thio]acetic acids as possible superoxide scavengers and antiinflammatory agents” (1984):

Columns and labels:
Format in all cases: functional
Rattus norvegicus [1] = assay: Percentage inhibition of reverse passive Arthus reaction was reported at a concentration of 30 mg/kg.
Rattus norvegicus [2] = species on record: Rattus norvegicus; assay: In Vitro superoxide scavenging activity by the analysis of variance method at concentration of 0.1 x 10E4 M
Rattus norvegicus [3] = assay: Percentage inhibition of Carrageenan-induced rat paw edema at a concentration of 32 mg/kg
Rattus norvegicus [4] = species on record: Rattus norvegicus; assay: In Vitro superoxide scavenging activity by the analysis of variance method at concentration of 0.5 x 10E4 M
Rattus norvegicus [5] = assay: The mean index of reverse passive Arthus reaction was calculated 3 h-postinjection at a concentration of 30 mg/kg.
Rattus norvegicus [6] = species on record: Rattus norvegicus; assay: In Vitro superoxide scavenging activity at a concentration of 1.0 x 10E4 M.
Rattus norvegicus [7] = species on record: Rattus norvegicus; assay: In Vitro superoxide scavenging activity by the analysis of variance method at concentration of 2.0 x 10E4 M
Rattus norvegicus [8] = assay: Percentage inhibition of Carrageenan-induced rat paw edema at a concentration of 0.3 mg/kg

O=C(O)CSc1nnc(-c2cc(O)c(O)c(O)c2)n1-c1ccccc1
inhibition in vivo at 30 mg/kg (Rattus norvegicus [1]): -28.2%
inhibition (Rattus norvegicus [2]): 16.7%
inhibition in vivo at 32 mg/kg (Rattus norvegicus [3]): 18%
inhibition (Rattus norvegicus [4]): 22.1%
Mean index (Rattus norvegicus [5]): 52
inhibition (Rattus norvegicus [6]): 65.7%

O=C(O)Cn1nnc(-c2ccc(O)c(O)c2)n1
inhibition (Rattus norvegicus [2]): 0%
inhibition (Rattus norvegicus [4]): 7.9%
inhibition (Rattus norvegicus [6]): 18.8%

O=C(O)Cn1nnc(-c2ccccc2)n1
inhibition (Rattus norvegicus [6]): 0%

COc1ccc(-c2nnc(SCC(=O)O)n2-c2ccccc2)cc1OC
inhibition (Rattus norvegicus [6]): 0%

CCCCC1C(=O)N(c2ccccc2)N(c2ccccc2)C1=O [PHENYLBUTAZONE]
inhibition in vivo at 32 mg/kg (Rattus norvegicus [3]): 47%

COc1cc(-c2nn[nH]n2)cc(OC)c1OC
inhibition (Rattus norvegicus [6]): 0%

O=C(O)CSc1nnc(-c2ccccc2)n1-c1ccccc1
inhibition (Rattus norvegicus [6]): 0%

COc1ccc(-c2nnc(SCC(=O)O)n2-c2ccccc2)cc1
inhibition (Rattus norvegicus [6]): 0%

COc1ccc(-c2nn[nH]n2)cc1OC
inhibition (Rattus norvegicus [6]): 0%

O=C(O)Cn1nnc(-c2cc(O)c(O)c(O)c2)n1
inhibition in vivo at 30 mg/kg (Rattus norvegicus [1]): -28.7%
inhibition (Rattus norvegicus [2]): 15.3%
inhibition in vivo at 32 mg/kg (Rattus norvegicus [3]): 14%
inhibition (Rattus norvegicus [4]): 55.9%
Mean index (Rattus norvegicus [5]): 52
inhibition (Rattus norvegicus [6]): 78%

COc1ccc(-c2nnn(CC(=O)O)n2)cc1
inhibition (Rattus norvegicus [6]): 0%

O=C(O)Cn1nnc(-c2ccc(O)cc2)n1
inhibition (Rattus norvegicus [6]): 0%

Oc1ccc(-c2nn[nH]n2)cc1O
inhibition (Rattus norvegicus [2]): 6.9%
inhibition (Rattus norvegicus [4]): 23%
inhibition (Rattus norvegicus [6]): 37.5%

c1ccc(-c2nnn[nH]2)cc1
inhibition (Rattus norvegicus [6]): 0%

Oc1ccc(-c2nn[nH]n2)cc1
inhibition (Rattus norvegicus [7]): 0%

Oc1cc(-c2nn[nH]n2)cc(O)c1O
inhibition in vivo at 30 mg/kg (Rattus norvegicus [1]): -5%
inhibition (Rattus norvegicus [2]): 16%
inhibition in vivo at 32 mg/kg (Rattus norvegicus [3]): 6%
inhibition (Rattus norvegicus [4]): 48.4%
Mean index (Rattus norvegicus [5]): 42.6
inhibition (Rattus norvegicus [6]): 66.9%

O=C(O)CSc1nnc(-c2ccc(O)cc2)n1-c1ccccc1
inhibition (Rattus norvegicus [6]): 11.6%

C[C@@H]1C[C@H]2[C@@H]3CCC4=CC(=O)C=C[C@]4(C)[C@@]3(F)[C@@H](O)C[C@]2(C)[C@@]1(O)C(=O)CO [DEXAMETHASONE]
inhibition in vivo at 0.3 mg/kg (Rattus norvegicus [8]): 69%

COc1cc(-c2nnc(SCC(=O)O)n2-c2ccccc2)cc(OC)c1OC
inhibition (Rattus norvegicus [6]): 0%

COc1ccc(-c2nn[nH]n2)cc1
inhibition (Rattus norvegicus [6]): 0%

COc1cc(-c2nnn(CC(=O)O)n2)cc(OC)c1OC
inhibition (Rattus norvegicus [6]): 0%

O=C(O)CSc1nnc(-c2ccc(O)c(O)c2)n1-c1ccccc1
inhibition (Rattus norvegicus [2]): 8.3%
inhibition (Rattus norvegicus [4]): 11.8%
inhibition (Rattus norvegicus [6]): 21.5%

COc1ccc(-c2nnn(CC(=O)O)n2)cc1OC
inhibition (Rattus norvegicus [6]): 0%
